The source made the active and inactive calls.
Columns and labels:
[1] = molecular target: T1, Eukaryotic translation initiation factor 2-alpha kinase 3 (Homo sapiens, UniProt Q9NZJ5); assay: Dose response cell-based high-throughput screening assay to measure PERK inhibition. [Related pubchem assays: 1416 ]; format: functional
[2] = molecular target: T1, Eukaryotic translation initiation factor 2-alpha kinase 3; assay: Counterscreen assay for PERK inhibitors: Dose response cell-based high throughput screening assay to measure inhibition of PERK at 6 hours. [Related pubchem assays: 1522, 1416 ]; format: functional
Large T antigen = Large T antigen (Simian virus 40, UniProt P03070); format: functional, Betapolyomavirus macacae;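 further: Confirmatory-stage PubChem screen for compounds that inhibit SV40 T antigen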
Procathepsin L = Procathepsin L (Homo sapiens, UniProt P07711)
Aspartyl aminopeptidase = molecular target: T2, Aspartyl aminopeptidase (Plasmodium falciparum 3D7, UniProt Q8I2J3)
T2 sequence (Q8I2J3 whole entry): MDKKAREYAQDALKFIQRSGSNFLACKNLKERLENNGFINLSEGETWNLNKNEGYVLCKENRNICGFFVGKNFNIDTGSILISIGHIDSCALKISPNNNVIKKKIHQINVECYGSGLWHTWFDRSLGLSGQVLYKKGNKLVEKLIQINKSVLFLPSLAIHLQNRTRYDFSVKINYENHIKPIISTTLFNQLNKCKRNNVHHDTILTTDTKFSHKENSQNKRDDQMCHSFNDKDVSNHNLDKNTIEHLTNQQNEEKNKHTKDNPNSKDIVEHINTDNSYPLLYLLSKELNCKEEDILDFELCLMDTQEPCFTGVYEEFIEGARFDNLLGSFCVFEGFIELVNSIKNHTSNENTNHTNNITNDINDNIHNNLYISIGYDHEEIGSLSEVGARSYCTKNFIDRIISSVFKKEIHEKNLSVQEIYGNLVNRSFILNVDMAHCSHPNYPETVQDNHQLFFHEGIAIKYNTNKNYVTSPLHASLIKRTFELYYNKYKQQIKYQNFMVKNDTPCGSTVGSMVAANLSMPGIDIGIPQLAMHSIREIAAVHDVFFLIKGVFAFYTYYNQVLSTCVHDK

[3] = molecular target: RNA-editing ligase 1, mitochondrial (Trypanosoma brucei brucei, UniProt P86926); assay: TbREL1 ligase inhibitors, dose response, biochemical, fluorescence, Trypanosoma brucei (AID 1117295); format: functional
[4] = molecular target: Lysosomal acid glucosylceramidase (Homo sapiens, UniProt P04062); assay: Dose response cell-based high throughput screening assay to identify enhancers of beta-glucosidase activity. [Related pubchem assays: 784 ]; format: functional
Bcl-2-like protein 10 = Bcl-2-like protein 10 (Homo sapiens, UniProt Q9HD36); assay: displacers of TR3 peptide from Bcl-B, primary screen, selectivity assay for Bfl-1 inhibitor project, biochemical, fluorescence polarization, FITC-TR3 peptide (AID 748);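 further: fluorescence polarization from a fluorescein-labelled TR3 peptide binding purified Bcl-B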
Estrogen receptor beta [5] = molecular target: T3, Estrogen receptor beta (Homo sapiens, UniProt Q92731); assay: ERβ–SRC-3 coactivator interaction inhibitors, confirmation, orthogonal assay, biochemical, ELISA, streptavidin-HRP readout (AID 1060)
Estrogen receptor beta [6] = molecular target: T3, Estrogen receptor beta
Vibrio harveyi [7] = assay: Quorum Sensing, LuxS, LuxPQ Measured in Microorganism System Using Plate Reader - 2035-01_Inhibitor_DoseNoFile_DryPowder_Activity. [Related pubchem assays (depositor defined):AID2106]; format: functional, organism-based
Vibrio harveyi [8] = assay: inhibitors of AI-2 quorum sensing in V. harveyi, dose response, LuxS, LuxPQ, dry powder, set 2 (AID 493072); format: functional, organism-based
Protein Rev = Protein Rev (Human immunodeficiency virus type 1 group M subtype B (isolate WMJ22)(HIV-1), UniProt P05866); assay: HIV-1 Rev-RRE RNA binding disruptors, dose response, biochemical, protein-RNA interaction (AID 842); parameters: species or system Human immunodeficiency virus 1
[9] = molecular target: T4, Sentrin-specific protease 1 (Homo sapiens, UniProt Q9P0U3); assay: Dose response confirmation of small molecule inhibitors of the catalytic domain of the SUMO protease, SENP1 in a FRET assay.; format: functional; settings: read-out: IC50_Mean
T4 sequence (Q9P0U3 whole entry): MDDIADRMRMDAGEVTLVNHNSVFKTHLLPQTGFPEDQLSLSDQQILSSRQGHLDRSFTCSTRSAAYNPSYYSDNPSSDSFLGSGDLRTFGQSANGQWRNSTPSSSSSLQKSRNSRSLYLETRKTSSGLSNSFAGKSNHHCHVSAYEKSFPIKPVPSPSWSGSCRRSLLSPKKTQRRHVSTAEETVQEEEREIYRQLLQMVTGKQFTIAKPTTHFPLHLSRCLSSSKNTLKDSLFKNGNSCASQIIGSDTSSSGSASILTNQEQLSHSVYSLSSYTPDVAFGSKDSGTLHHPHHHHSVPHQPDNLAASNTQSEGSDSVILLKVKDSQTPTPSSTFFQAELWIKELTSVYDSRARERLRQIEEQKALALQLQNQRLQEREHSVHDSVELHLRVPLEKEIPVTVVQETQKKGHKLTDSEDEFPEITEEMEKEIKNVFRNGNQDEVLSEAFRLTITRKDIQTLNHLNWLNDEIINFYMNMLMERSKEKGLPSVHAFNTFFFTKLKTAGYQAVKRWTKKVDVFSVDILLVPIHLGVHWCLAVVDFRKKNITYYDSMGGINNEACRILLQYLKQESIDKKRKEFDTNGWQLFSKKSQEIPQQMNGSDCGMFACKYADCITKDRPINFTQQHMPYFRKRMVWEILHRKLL

Insulin-degrading enzyme = molecular target: T5, Insulin-degrading enzyme (Homo sapiens, UniProt P14735); assay: Dose Response: Fluorescence polarization-based cell-based high throughput dose response assay for inhibitors of insulin-degrading enzyme (IDE). [Related pubchem assays: 434962 (Primary screen (IDE inhibitors in singlicate)), 449730 (Counterscreen (Cytotoxicity in triplicate)), 435028 (Confirmation (IDE inhibitors in triplicate)), 434984 (Summary …; format: functional
T5 sequence (P14735 whole entry): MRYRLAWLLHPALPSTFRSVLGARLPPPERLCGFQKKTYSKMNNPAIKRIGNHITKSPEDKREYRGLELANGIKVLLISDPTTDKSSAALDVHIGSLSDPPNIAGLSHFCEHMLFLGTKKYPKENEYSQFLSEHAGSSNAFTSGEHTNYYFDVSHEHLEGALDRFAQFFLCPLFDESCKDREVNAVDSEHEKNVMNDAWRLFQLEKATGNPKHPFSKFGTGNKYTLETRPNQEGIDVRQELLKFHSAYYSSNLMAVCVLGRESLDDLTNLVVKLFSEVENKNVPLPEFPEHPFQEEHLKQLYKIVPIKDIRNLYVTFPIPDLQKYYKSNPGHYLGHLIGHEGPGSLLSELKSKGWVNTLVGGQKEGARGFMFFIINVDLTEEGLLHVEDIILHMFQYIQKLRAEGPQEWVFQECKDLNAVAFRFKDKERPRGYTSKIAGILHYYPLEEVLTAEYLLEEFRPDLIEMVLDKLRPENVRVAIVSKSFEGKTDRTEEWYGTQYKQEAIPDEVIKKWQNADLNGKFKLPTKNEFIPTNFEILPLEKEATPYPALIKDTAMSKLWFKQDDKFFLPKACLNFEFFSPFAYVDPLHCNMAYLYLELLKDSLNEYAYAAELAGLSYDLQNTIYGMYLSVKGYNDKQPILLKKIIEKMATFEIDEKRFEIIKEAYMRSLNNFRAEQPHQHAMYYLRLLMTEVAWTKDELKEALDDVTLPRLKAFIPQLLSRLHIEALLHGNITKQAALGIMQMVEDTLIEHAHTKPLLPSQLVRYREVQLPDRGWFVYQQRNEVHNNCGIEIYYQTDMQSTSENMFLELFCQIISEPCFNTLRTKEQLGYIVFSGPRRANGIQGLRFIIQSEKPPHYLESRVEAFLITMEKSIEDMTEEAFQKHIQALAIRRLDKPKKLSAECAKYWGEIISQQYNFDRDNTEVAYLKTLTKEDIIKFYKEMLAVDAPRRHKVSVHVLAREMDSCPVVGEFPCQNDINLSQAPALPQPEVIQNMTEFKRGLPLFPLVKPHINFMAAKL

[10] = Counterscreen for IDE inhibitors: Luminescence-based cell-based high throughput dose response assay to identify compounds that are cytotoxic to HEK cells. [Related pubchem assays: 434962 (Primary screen (IDE inhibitors in singlicate)), 449730 (Counterscreen (Cytotoxicity in triplicate)), 435028 (Confirmation (IDE inhibitors in triplicate)) …; format: functional; settings: HEK293
[11] = molecular target: T4, Sentrin-specific protease 1; assay: potency of human SENP1 inhibitors, dose response, biochemical, kinetic FRET (AID 651697); format: functional; settings: read-out: IC50_Mean
[12] = molecular target: Heat shock 70 kDa protein 1A (Homo sapiens, UniProt P0DMV8); assay: Hsp70 inhibitors, SAR follow-up, biochemical, fluorescence polarization (AID 1072)
[13] = molecular target: Heat shock cognate 71 kDa protein (Homo sapiens, UniProt P11142); assay: In Vitro Hsc70 Dose Response Fluorescence Polarization Assay. [Related pubchem assays: 1072 ]
[14] = molecular target: T6, Tyrosine-protein phosphatase non-receptor type 7 (Homo sapiens, UniProt P35236); format: functional
T6 sequence (P35236 whole entry): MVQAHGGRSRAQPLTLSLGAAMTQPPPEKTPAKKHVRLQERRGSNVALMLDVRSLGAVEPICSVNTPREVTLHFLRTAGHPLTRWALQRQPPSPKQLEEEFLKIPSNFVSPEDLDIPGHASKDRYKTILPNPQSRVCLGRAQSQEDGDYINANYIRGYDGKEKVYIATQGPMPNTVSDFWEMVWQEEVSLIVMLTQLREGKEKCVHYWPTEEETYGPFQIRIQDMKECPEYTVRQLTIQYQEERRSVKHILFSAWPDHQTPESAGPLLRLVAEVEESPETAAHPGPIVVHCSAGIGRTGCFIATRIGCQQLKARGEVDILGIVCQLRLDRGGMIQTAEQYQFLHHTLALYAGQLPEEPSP

[15] = molecular target: T7, Dual specificity protein phosphatase 6 (Rattus norvegicus, UniProt Q64346); format: functional
T7 sequence (Q64346 whole entry): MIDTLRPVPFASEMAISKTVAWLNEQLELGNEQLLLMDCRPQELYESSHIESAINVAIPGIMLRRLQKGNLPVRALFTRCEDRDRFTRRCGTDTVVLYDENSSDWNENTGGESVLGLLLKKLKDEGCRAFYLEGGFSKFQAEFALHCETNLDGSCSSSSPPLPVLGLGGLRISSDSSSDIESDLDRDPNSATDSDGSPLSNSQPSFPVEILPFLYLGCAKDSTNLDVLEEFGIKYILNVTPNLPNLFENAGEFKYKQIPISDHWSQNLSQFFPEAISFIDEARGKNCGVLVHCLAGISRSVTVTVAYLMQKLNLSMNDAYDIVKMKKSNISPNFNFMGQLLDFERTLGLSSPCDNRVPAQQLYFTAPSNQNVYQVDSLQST

[16] = molecular target: Glyceraldehyde-3-phosphate dehydrogenase (Homo sapiens, UniProt P04406)
[17] = molecular target: T7, Dual specificity protein phosphatase 6
Wee1-like protein kinase = Wee1-like protein kinase (Homo sapiens, UniProt P30291); assay: G2/M cell cycle arrest in HeLa, late-stage follow-up, mechanism study for Wee1 degradation inhibitor project, FACS, panel member Wee1 Degradation (AID 2088)
[18] = molecular target: G2/mitotic-specific cyclin-B1 (Homo sapiens, UniProt P14635); assay: G2/M cell cycle arrest in HeLa, late-stage follow-up, mechanism study for Wee1 degradation inhibitor project, FACS, panel member Cyclin B Degradation (AID 2088)
[19] = cytotoxicity toward NIH3T3 fibroblasts, dose response, counter-screen, cell-based, ATP luminescence, mouse fibroblasts (AID 2010); format: functional;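 further: cells exposed to compound for about 90 hours before reading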
[20] = inhibitors of intracellular T. cruzi replication, confirmation, NIH3T3 host cells, beta-gal luminescence (AID 2044); format: functional, cell-based;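 further: intracellular parasites grown in NIH/3T3 mouse fibroblasts as host cells; luminescent beta-galactosidase reporter signal from transgenic T. cruzi replicating inside host cells; inhibitors lower the luminescence signal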
[21] = molecular target: T8, Alkaline phosphatase, tissue-nonspecific isozyme (Homo sapiens, UniProt P05186)
T8 sequence (P05186 whole entry): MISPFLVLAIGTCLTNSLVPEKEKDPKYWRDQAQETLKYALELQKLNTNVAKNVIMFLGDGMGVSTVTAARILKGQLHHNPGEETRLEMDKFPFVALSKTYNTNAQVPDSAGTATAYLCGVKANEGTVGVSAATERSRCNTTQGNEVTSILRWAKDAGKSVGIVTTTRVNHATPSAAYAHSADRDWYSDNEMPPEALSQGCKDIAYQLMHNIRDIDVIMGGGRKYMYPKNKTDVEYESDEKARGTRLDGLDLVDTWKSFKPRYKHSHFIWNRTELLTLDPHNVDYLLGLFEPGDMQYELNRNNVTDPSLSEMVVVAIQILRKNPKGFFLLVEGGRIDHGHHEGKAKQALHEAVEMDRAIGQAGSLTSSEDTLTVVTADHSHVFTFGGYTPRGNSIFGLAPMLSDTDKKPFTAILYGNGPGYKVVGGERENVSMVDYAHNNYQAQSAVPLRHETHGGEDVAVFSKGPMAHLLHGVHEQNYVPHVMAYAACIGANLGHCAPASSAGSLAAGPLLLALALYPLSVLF

T3 sequence (Q92731 whole entry): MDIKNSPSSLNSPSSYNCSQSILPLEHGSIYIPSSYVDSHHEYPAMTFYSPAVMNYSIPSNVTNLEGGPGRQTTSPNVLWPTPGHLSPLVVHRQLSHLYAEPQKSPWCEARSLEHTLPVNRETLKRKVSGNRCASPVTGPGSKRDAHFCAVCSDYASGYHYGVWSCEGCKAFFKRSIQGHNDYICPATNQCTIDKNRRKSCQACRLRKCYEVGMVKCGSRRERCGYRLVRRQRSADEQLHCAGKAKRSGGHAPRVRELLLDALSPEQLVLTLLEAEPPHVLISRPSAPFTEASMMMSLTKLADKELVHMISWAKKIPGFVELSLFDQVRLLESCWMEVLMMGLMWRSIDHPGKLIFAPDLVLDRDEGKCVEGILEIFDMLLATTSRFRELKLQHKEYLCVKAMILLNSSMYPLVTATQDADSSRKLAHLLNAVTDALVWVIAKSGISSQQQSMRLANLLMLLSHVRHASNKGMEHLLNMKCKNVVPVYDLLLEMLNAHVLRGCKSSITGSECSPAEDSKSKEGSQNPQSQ
T1 sequence (Q9NZJ5 whole entry): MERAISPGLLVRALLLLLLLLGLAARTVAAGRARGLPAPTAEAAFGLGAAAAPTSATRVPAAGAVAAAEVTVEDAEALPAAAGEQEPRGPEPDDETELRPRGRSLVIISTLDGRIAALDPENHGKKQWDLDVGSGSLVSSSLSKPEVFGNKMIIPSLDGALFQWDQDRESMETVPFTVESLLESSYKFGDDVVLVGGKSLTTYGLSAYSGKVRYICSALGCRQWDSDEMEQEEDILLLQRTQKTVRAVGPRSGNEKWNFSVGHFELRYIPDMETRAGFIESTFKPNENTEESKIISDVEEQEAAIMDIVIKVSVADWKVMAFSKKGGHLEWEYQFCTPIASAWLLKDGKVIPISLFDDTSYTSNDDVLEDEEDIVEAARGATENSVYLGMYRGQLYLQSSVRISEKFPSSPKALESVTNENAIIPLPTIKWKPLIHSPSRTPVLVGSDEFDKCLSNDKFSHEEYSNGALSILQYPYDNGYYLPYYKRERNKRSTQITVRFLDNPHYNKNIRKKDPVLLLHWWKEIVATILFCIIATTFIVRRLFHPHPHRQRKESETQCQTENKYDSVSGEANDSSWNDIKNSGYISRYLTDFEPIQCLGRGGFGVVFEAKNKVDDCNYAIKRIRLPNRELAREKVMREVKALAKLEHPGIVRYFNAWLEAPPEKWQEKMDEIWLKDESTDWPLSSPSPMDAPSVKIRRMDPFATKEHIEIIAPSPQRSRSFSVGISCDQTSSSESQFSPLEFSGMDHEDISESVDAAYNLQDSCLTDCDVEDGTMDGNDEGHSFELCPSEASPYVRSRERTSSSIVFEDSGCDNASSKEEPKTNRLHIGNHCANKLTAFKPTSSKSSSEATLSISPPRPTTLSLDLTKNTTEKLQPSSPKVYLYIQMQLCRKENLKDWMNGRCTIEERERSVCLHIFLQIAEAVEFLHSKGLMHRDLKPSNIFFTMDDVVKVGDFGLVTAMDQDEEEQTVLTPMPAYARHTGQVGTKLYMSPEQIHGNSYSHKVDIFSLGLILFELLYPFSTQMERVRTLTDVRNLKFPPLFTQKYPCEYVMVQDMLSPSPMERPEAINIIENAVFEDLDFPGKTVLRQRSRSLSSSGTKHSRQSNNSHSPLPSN
RNA-editing ligase 1, mitochondrial, sequence (P86926 whole entry): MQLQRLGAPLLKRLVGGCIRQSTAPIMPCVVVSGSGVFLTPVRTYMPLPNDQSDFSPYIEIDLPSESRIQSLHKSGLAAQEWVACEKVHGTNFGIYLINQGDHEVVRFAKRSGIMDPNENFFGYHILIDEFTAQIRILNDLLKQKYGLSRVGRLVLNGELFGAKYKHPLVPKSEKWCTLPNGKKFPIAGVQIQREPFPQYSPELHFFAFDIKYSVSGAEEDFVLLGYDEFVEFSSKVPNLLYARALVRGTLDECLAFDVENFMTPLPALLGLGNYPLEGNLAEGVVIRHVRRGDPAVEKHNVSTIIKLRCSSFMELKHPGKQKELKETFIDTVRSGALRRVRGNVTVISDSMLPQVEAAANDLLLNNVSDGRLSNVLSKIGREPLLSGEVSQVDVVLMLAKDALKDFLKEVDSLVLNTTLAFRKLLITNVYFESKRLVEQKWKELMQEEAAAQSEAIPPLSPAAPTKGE
Glyceraldehyde-3-phosphate dehydrogenase, sequence (P04406 whole entry): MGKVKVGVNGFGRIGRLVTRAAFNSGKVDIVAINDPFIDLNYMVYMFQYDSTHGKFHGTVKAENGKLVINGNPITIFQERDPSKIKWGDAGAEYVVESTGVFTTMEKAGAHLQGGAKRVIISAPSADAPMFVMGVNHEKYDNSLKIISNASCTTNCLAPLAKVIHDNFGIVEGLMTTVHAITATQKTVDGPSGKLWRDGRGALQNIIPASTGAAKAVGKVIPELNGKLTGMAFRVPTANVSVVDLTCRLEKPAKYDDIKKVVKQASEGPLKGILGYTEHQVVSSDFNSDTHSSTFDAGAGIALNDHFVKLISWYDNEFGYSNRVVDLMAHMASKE
G2/mitotic-specific cyclin-B1, sequence (P14635 whole entry): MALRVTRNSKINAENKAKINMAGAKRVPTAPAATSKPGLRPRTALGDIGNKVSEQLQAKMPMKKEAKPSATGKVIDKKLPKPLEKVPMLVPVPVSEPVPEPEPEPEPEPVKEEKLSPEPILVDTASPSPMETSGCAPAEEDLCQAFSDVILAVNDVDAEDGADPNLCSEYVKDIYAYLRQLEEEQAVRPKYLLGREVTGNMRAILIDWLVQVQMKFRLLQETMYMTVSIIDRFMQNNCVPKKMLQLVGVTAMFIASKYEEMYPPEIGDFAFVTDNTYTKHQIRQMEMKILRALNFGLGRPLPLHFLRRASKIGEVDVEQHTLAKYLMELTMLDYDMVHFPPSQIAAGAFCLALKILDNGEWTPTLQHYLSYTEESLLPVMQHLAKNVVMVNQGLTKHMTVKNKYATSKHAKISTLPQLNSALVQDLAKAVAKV
Lysosomal acid glucosylceramidase, sequence (P04062 whole entry): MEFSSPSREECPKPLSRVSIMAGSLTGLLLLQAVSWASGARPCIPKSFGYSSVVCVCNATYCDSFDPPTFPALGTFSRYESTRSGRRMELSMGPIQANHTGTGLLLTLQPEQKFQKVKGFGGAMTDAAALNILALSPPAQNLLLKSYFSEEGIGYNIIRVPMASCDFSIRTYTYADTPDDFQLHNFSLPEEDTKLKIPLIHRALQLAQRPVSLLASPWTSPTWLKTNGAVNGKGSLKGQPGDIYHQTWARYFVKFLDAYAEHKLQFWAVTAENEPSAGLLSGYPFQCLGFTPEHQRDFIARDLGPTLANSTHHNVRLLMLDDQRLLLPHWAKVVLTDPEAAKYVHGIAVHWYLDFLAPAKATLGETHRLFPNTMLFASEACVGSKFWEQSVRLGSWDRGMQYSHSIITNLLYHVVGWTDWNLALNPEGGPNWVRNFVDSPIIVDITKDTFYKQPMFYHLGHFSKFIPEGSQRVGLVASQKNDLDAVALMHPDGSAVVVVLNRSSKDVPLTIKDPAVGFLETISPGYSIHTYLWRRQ
Protein Rev, sequence (P05866 whole entry, the tested form may be a part): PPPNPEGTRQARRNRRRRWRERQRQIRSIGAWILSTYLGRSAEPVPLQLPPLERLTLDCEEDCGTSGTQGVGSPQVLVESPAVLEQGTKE
Procathepsin L, sequence (P07711 whole entry): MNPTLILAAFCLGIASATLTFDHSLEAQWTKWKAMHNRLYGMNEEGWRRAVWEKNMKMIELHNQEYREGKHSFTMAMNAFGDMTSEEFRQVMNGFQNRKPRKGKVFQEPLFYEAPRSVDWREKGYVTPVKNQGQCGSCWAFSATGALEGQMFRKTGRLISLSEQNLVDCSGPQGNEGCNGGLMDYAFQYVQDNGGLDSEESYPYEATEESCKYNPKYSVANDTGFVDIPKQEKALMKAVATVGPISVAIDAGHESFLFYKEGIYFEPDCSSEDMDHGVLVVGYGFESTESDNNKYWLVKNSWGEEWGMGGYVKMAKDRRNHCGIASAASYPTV
Wee1-like protein kinase, sequence (P30291 whole entry): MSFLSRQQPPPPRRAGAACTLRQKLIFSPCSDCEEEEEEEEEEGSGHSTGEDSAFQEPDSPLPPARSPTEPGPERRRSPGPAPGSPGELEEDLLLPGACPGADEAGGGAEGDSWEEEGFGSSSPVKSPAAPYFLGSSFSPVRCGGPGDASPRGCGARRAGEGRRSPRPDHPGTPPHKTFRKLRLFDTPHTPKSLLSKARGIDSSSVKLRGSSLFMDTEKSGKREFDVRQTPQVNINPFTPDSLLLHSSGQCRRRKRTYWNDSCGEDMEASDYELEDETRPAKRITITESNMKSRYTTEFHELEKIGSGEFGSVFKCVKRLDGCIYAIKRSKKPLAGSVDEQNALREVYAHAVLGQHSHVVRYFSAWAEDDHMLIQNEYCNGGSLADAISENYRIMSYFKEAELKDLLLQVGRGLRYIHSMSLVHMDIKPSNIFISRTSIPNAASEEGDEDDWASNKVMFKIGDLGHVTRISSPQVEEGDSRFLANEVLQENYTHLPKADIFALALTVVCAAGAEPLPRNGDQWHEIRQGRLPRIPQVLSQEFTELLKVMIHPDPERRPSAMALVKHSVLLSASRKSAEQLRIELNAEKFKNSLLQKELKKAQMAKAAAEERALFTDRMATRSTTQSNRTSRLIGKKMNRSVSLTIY
Bcl-2-like protein 10, sequence (Q9HD36 whole entry): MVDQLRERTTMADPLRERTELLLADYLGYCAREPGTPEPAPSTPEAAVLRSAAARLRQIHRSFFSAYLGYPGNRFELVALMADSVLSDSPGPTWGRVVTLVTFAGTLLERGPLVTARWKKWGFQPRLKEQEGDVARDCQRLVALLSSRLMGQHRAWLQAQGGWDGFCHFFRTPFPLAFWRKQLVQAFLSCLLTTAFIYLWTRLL

COc1ccc(Nc2nnc(C)c(O)n2)c(OC)c1
EC50 [1]: > 55.7 µM (not active) | EC50 [2]: > 55.7 µM (not active)

O=C1NC(=O)C(=Cc2ccc(-c3ccc(F)cc3O)o2)C(=O)N1
IC50 (Large T antigen): 39.9 µM (active) | IC50 (Procathepsin L): > 59.6 µM (not active) | IC50 (Aspartyl aminopeptidase): 4.13 µM (active) | IC50 [3]: 63.8 µM (inactive)

COc1ccc(CN(Cc2cc3cccc(C)c3nc2O)C(=O)N(C)C)cc1
EC50 [4]: > 10 µM (not active)

Cc1ccc(S(=O)(=O)Cc2ccc(C(=O)N3CCc4ccccc4C3)o2)cc1
IC50 (Bcl-2-like protein 10): 20.5 µM (active) | IC50 (Estrogen receptor beta [5]): < 0.023 µM (not active) | IC50 (Estrogen receptor beta [6]): 4.88 µM (active)

Cn1cnc(S(=O)(=O)Nc2ccc(OC(F)(F)F)cc2)c1
AC50 (Vibrio harveyi [7]): 3.13 µM (active) | AC50 (Vibrio harveyi [8]): 4.67 µM (active) | AC50 (Vibrio harveyi [8]; Vibrio harveyi): 5.06 µM (active)

COc1ccc(C2N=C(N)N=C(N)N2c2ccc(C)cc2)cc1 (centres undefined)
IC50 (Protein Rev): > 79.4 µM (not active)

CCN(CC)C(=O)Cn1cc(C(=O)C(=O)N2CC=C(c3ccccc3)CC2)c2ccccc21
IC50 [9]: 7.95 µM (active) | IC50 (Insulin-degrading enzyme): 35.1 µM (not active) | IC50 [10]: 24.4 µM (not active) | IC50 [11]: 20.4 µM (inactive)

CCOC(=O)c1ccccc1OC(=O)c1ccc2c(c1)C1C=CCC1C(C(=O)O)N2 (centres undefined)
IC50 [12]: 35.1 µM (active) | IC50 [13]: 112 µM (active) | IC50 [14]: 3.3 µM (active) | IC50 [15]: 6.01 µM (active) | IC50 [16]: > 100 µM (not active) | IC50 [17]: 14.1 µM (active)

CCOC(=O)c1cccc(NC(=O)CCCOc2cc(=O)n(C)c3ccccc23)c1
EC50 (Wee1-like protein kinase): > 49.7 µM (inactive) | EC50 [18]: > 49.7 µM (inactive)

CCOC(=O)c1c(NC(=O)N/N=C/c2ccccc2OCC)sc(C(C)=O)c1C
EC50 [19]: > 60 µM (not active) | EC50 [20]: 2.88 µM (active) | EC50 [21]: > 100 µM (not active)
